Data set [1] deals with MM.1S multiple myeloma cell line. The data set can be described thus: CellTiter 96 AQueous One Solution cell proliferation assay, MM.1S. It counts as cell-based. To be noted: Homo sapiens, MM1.S, 72 h of treatment, read-out: Cytotoxicity Assay. The source says: The CellTiter 96® AQueous One Solution cell proliferation assay (Promega) was used on MM.1S multiple myeloma cell line to study the cytotoxic and cytostatic properties of the compounds. The assay is based on the cleavage of the tetrazolium salt, MTS, in the presence of an electron-coupling reagent PES (phenazine ethosulfate). The MTS tetrazolium compound is bioreduced by cells into a colored formazan product that is soluble in tissue culture medium. This conversion is presumably accomplished by NADPH or NADH produced by dehydrogenase enzymes in metabolically active cells. Assays are performed by adding a small amount of the CellTiter 96® AQueous One solution reagent directly to culture wells, incubating for 1-4 hours and then recording the absorbance at 490 nm with a 96-well plate reader.
The cells were seeded at 5×10^3 to 1.5×10^4 cells in each well of a 96-well plate in 100 μL of fresh culture medium and adherent cells were allowed to attach overnight. The stock solutions of the compounds were diluted in cell culture medium to obtain eight concentrations of each drug, ranging from 1 nM to 30 μM and DMSO at less than 1% v/v was used as a negative control. The resulting drug solutions were transferred onto the cells. After 72 h of treatment, 20 μl of CellTiter 96® AQueous reagent was added into each well of the 96-well assay plates and the plate was incubated at 37° C. for 1-4 hours in a humidified, 5% CO2 atmosphere. Then the absorbance of each well was recorded at 490 nm using a 96-well plate reader. In most cases, the assay was performed in triplicate and the results were presented as half maximal inhibitory concentration (IC50). Optical density versus compound concentration was plotted and analyzed using non-linear regression equations (IDBS XLfit) and the IC50 for each compound was calculated.

The nature of data set [2]: Pharmacokinetic (PK) assay, plasma AUC in mice. In kind it is in vivo. To be noted: 10 mg/kg po; for AUC(0-inf): mouse, plasma. How it is done:
AUC. Blood was collected from mice (N=3) to contribute to the total of 10 time points (pre-dose, 5 min, 15 min, 30 min, 1 hour, 2 hours, 4 hours, 8 hours, 12 hours and 24 hours post dose). Mice were bled on a rotating basis, each mouse contributing 3 time points to the blood collection. At the designated time points, animals were anaesthetized under isoflurane, and approximately 110 μL of blood per time point was collected via retro-orbital puncture into pre-cooled K2EDTA (anti-coagulant) tubes. Blood samples were put on wet ice and centrifuged (2000 g, 5 min at 4° C.) to obtain plasma within 30 minutes of sample collection. All samples were stored frozen at approximately −80° C. until analysis. Prior to analysis, samples were mixed with internal standard (dexamethasone) in acetonitrile, vortexed, centrifuged, and supernatant was injected for analysis. Concentration of compounds in plasma was determined using LC-MS-MS instrumentation (API 4000, Triple Quadruple with electrospray ionization; Acuity Ultra Performance Liquid Chromatography column C18, with MeOH and formic acid as organic solvents). AUC values were calculated using WinNonlin Professional 6.2 software package, non-compartmental pharmacokinetic model NCA200.

Data set [3] in a line: Brain to Plasma (B:P) ratio in mice. In kind it is in vivo. Conditions: 10 mg/kg po, 2 hours post-dose; for Kp at 2 h: mouse, brain/plasma. As to the method:
Brain to Plasma (B:P) Ratio. […] Following collection, brain tissue was rinsed with cold saline, dried on filter paper, weighed and snap-frozen by placing on dry ice. All samples were stored frozen at approximately −80° C. until analysis. […] Plasma samples were treated with the identical method (except homogenization step) and the concentration of compound in each matrix was calculated based on generated standard curves.

Data set [4] has as its target T1, CRM1-mediated nuclear export (Homo sapiens, UniProt O14980).
T1 construct: endogenous in cells; host or cells: U2OS-RevGFP cells
The data set can be described thus: RevGFP assay, inhibition of nuclear export. In kind it is cell-based. To be noted: U2OS-RevGFP cells, about 1 hr incubation; read-out: Rev Export. As to the method: The ability of exemplary compounds of the invention to inhibit CRM1-mediated nuclear export was assessed in a RevGFP assay. Rev is a protein from human immunodeficiency virus type 1 (HIV-1) and contains a nuclear export signal (NES) in its C-terminal domain and a nuclear localization signal (NLS) in its N-terminal domain. Nuclear export of Rev protein is dependent on the classical NES/CRM1 pathway (Neville et al. 1997).
In this assay, U2OS-RevGFP cells were seeded onto clear-bottomed, black, 384-well plates the day before the experiment. Compounds were serially diluted 1:2 in DMEM, starting from 40 μM in a separate, 384-well plate, and then transferred onto the cells. The cells were incubated with compound for about 1 hr before fixation with 3.7% formaldehyde and nuclei staining with Hoechst 33258. The amount of GFP in cell nuclei was measured and the IC50 of each compound was determined (Kau et al. 2003).

Counter-ions that a name gives are not always drawn.

The AUC(0-inf) is total exposure, with the tail of the curve extrapolated. Low values mean low exposure, high ones high exposure. Usually Kp stands for tissue or fluid exposure divided by exposure in the circulation.

T1 sequence (O14980 whole entry): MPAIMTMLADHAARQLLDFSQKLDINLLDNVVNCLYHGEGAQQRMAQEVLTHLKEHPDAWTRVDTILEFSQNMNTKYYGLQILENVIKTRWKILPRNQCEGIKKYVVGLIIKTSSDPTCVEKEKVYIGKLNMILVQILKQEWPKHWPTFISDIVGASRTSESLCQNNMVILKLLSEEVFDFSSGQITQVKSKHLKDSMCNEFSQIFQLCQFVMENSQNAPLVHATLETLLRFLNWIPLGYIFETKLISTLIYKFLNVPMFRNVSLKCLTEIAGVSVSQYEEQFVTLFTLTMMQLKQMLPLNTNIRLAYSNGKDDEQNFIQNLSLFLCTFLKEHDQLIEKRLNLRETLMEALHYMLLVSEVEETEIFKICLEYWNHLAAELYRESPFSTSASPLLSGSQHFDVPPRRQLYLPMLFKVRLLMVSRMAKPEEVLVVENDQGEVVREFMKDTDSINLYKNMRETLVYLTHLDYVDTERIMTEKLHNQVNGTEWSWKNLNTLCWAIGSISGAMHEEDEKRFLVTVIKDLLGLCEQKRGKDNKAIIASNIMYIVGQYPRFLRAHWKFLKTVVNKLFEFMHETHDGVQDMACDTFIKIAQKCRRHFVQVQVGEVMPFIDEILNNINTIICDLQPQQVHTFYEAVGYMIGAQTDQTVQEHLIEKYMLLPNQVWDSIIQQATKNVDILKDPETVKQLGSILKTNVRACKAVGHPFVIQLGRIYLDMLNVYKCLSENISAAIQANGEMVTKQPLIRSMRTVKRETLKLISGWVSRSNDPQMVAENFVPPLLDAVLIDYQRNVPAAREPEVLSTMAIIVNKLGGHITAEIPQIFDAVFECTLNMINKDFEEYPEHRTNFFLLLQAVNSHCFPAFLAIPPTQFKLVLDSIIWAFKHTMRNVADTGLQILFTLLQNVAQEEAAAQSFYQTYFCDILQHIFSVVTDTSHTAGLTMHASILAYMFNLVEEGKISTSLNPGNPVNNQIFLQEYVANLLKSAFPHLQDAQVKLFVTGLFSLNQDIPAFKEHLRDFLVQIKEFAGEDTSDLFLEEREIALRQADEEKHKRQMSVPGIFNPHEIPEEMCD

As for `O=C(/C=C\n1cnc(-c2cc(C(F)(F)F)c(Cl)c(C(F)(F)F)c2)n1)NNc1cnccn1` [Compound I-24, (Z)-3-(3-(4-chloro-3,5-bis(trifluoromethyl)phenyl)-1H-1,2,4-triazol-1-yl)-N′-(pyrazin-2-yl)acrylohydrazide], the IC50 in data set [1] is at most 1 µM. Besides, in data set [2], the AUC(0-inf) came out at 3350 ng·h/mL. The Kp at 2 h in data set [3] turned out to be 0.7.
On to `COc1cc(-c2ncn(/C=C\C(=O)OC(C)C)n2)cc(C(F)(F)F)c1` [Compound X-1, reference compound], for which the IC50 in data set [1] and in data set [4] was at most 1 µM throughout. Also, the AUCInf result in data set [2] (10 mg/kg) was “below the limit of detection”.
Turning to `CN(NC(=O)/C=C\n1cnc(-c2cc(C(F)(F)F)cc(C(F)(F)F)c2)n1)c1ccccn1` [Compound I-7, (Z)-3-(3-(3,5-bis(trifluoromethyl)phenyl)-1H-1,2,4-triazol-1-yl)-N‘-methyl-N’-(pyridin-2-yl)acrylohydrazide], the IC50 in data set [1] and in data set [4] was at most 1 µM each time. In data set [2], the AUC(0-inf) turned out to be 12200 ng·h/mL. Moreover, the Kp at 2 h in data set [3] came out at 1.5.
As to `O=C(/C=C\n1cnc(-c2cc(C(F)(F)F)cc(C(F)(F)F)c2)n1)NNc1cc(Cl)ncn1` [Compound I-12, (Z)-3-(3-(3,5-bis(trifluoromethyl)phenyl)-1H-1,2,4-triazol-1-yl)-N′-(6-chloropyrimidin-4-yl)acrylohydrazide], the IC50 in data set [1] and in data set [4] was at most 1 µM throughout. Further, the AUC(0-inf) in data set [2] was 24900 ng·h/mL. Further, the Kp at 2 h in data set [3] amounted to 0.13.
Regarding `CC(C)OC(=O)/C=C\n1cnc(-c2cc(OC(C)C)cc(C(F)(F)F)c2)n1` [Compound X-2, reference compound], the IC50 in data set [1] and in data set [4] was at most 1 µM in each case.
On to `Cc1ccc(NNC(=O)/C=C\n2cnc(-c3cc(C(F)(F)F)cc(C(F)(F)F)c3)n2)nc1` [Compound I-10, (Z)-3-(3-(3,5-bis(trifluoromethyl)phenyl)-1H-1,2,4-triazol-1-yl)-N′-(5-methylpyridin-2-yl)acrylohydrazide], for which the IC50 in data set [1] was at most 1 µM. This compound also displayed an AUC(0-inf) in data set [2] of 4170 ng·h/mL. In addition, the concentration ratio (Kp) at 2 h in data set [3] stood at 0.77.
For `O=C(/C=C\n1cnc(-c2cc(C(F)(F)F)cc(C(F)(F)F)c2)n1)N1CC(F)(F)C1` [Compound X-3, reference compound], the IC50 in data set [1] and in data set [4] was at most 1 µM throughout. In data set [3], the “B:P” value is 5.0.
Turning to `O=C(/C=C\n1cnc(-c2cc(C(F)(F)F)cc(C(F)(F)F)c2)n1)NNc1cnc2ccccc2n1` [Compound I-14, (Z)-3-(3-(3,5-bis(trifluoromethyl)phenyl)-1H-1,2,4-triazol-1-yl)-N′-(quinoxalin-2-yl)acrylohydrazide], in data set [1], the IC50 is at most 1 µM.
Turning to `O=C(/C=C/n1cnc(-c2cc(C(F)(F)F)cc(C(F)(F)F)c2)n1)NNc1cnccn1` [Compound I-18, (E)-3-(3-(3,5-bis(trifluoromethyl)phenyl)-1H-1,2,4-triazol-1-yl)-N′-(pyrazin-2-yl) acrylohydrazide], the IC50 in data set [1] is at most 1 µM. The same compound displayed an AUC(0-inf) in data set [2] of 7140 ng·h/mL.
On to `CN(NC(=O)/C=C\n1cnc(-c2cc(C(F)(F)F)cc(C(F)(F)F)c2)n1)c1cnccn1` [Compound I-8, (Z)-3-(3-(3,5-bis(trifluoromethyl)phenyl)-1H-1,2,4-triazol-1-yl)-N′-methyl-N′-(pyrazin-2-yl)acrylohydrazide], for which the IC50 in data set [1] and in data set [4] was at most 1 µM each time. For the same compound, the AUC(0-inf) in data set [2] was 4600 ng·h/mL. Besides, the Kp at 2 h in data set [3] came out at 2.1.
`O=C(/C=C\n1cnc(-c2cc(C(F)(F)F)cc(C(F)(F)F)c2)n1)NNc1ccncc1` [Compound I-19, (Z)-3-(3-(3,5-bis(trifluoromethyl)phenyl)-1H-1,2,4-triazol-1-yl)-N′-(pyridin-4-yl) acrylohydrazide hydrochloride]: the IC50 in data set [1] is at most 1 µM. In data set [2], this compound yielded an AUC(0-inf) of 4020 ng·h/mL. Besides, the Kp at 2 h in data set [3] amounted to 0.2.
